The subject of the assay is MCF-7 cells. Description: Flow cytometry at 4 °C versus 37 °C. It is filed as cell-based. Conditions: MCF-7, 20 µM, 1 h. Here is the method: MCF-7 cells were seeded in a 24-well plate at 150′000 cells/well in DMEM (1 mL, 10% FCS), and allowed to adhere overnight. The medium was removed, the cells were washed with PBS (250 μL, 1x) and incubated with the peptide solution at 20 μM, 10 μM, 5 μM or 2.5 μM in medium (200 μL, 1% FCS) for 1 h at 37 °C. The medium was removed, and the cells were washed with PBS (250 μL, 2x). Trypsin (100 μL, 0.05%) was added, and the cells were incubated at 37 °C for 5 min. D-PBS with Mg^2+ and Ca^2+ (300 μL, 4 °C) was added, the cells were resuspended and centrifuged for 5 min at 0.4 rcf. The supernatant was carefully removed, and the cells were resuspended in a solution of PBS containing 1.5 μM PI and 2 mM EDTA (400 μL at 4 °C). […] Each sample contained 10′000 cells and was analyzed in triplicate. […]
Figure S9. […] After 1 h incubation at 4 °C, the fluorescence signal is in case of most of the peptides lower, indicating an endocytosis pathway. […]
of different entry mechanisms. The indicated P-values were determined using one-way ANOVA followed by Tukey’s […]
(also on this page, place not known: µM µM °C µM °C (ChaZZ) µM °C (ChaZZ) µM °C (ChaZZ) µM °C 20000Mean fluorescence intensity (ChaZZ)3 °CCells °C (ChaZZ) µM °C (ChaZZ) µM °C (ChaZZ) 3-Cha µM °C (ChaZZ) 3-Cha µM °C (ChaZZ) 3-Cha µM °C (ChaZZ) 3-Cha µM °C (ChaZZ) 3-Cha µM °C (ChaZZ) 3-Cha µM °C 30000Mean fluorescence intensity)

Here are results for one substance from paper PMC12455572, “Amphipathic Proline-Rich Cell Penetrating Peptides for Targeting Mitochondria” (ACS Chemical Biology, 2025).

As for CF-Ahx-(ChaZZ)3-NH2, the “Fluorescence signal after incubation at 4 °C compared with 37 °C (FACS)” value is on record as “close-to-level signal”.
